# Assay results as given in patent US20230173018A1, “CASPOFUNGIN DERIVATIVES AND ASSAYS FOR EVALUATING ANTIFUNGAL TREATMENT EFFICACY” (priority 2020, published 2023).
# Read-outs that look alike come from different tables or passages of the source.
# Columns and labels:
# Type in all cases: cell-based
# [1] = tested on: C. albicans CG72; assay: microbe, parasite or virus in culture
# Text: (§1) The antifungal activities of compounds 1a, 1 and 2 (collectively: caspofungin derivatives) were compared to that of caspofungin and CSF-BOD using a panel of 49 C. albicans and C. glabrata strains (Tables 1 and 2). The panel included ATCC strains and clinical isolates as well a collection of caspofungin-responsive strains and their corresponding isogenic caspofungin-resistant derivatives, constructed by introducing point mutations within and near the defined hotspots in the FKS1 and/or FKS2 genes of the GS complex. Minimal inhibitory concentration (MIC) values for all strains were determined using the broth double dilution method and are summarized in FIG. 2 and Table 2. […] The clinical breakpoints (threshold) for caspofungin-resistance in C. albicans and C. glabrata are 1 μg/mL and 0.5 μg/mL, respectively.
# [2] = tested on: C. albicans DPL1015 (DP-A15); assay: microbe, parasite or virus in culture; settings: strain no. 2, DPL1015 (DP-A15), parental SC5314, FKS1 mutant HS1-S645S/P
# Text: as §1
# [3] = tested on: C. albicans DPL1016 (DP-A15-10); assay: microbe, parasite or virus in culture; settings: strain no. 3, DPL1016 (DP-A15-10), parental SC5314, FKS1 mutant HS1-S645P
# Text: as §1
# [4] = tested on: C. albicans SN95; assay: microbe, parasite or virus in culture
# Text: as §1
# [5] = tested on: C. albicans T-2068 (DP-C42); assay: microbe, parasite or virus in culture; settings: strain no. 4, T-2068 (DP-C42), parental SC5314, FKS1 HS1-F641S mutation
# Text: as §1
# [6] = tested on: C. albicans T-2069 (DP-85); assay: microbe, parasite or virus in culture; settings: strain no. 14, T-2069 (DP-85), clinical isolate, FKS1 HS1-S645F mutation
# Text: as §1
# [7] = tested on: C. albicans T-2074 (DP-122); assay: microbe, parasite or virus in culture; settings: strain no. 12, T-2074 (DP-122), clinical isolate, FKS1 HS1-P649H mutation
# Text: as §1
# [8] = tested on: C. albicans T-2076 (DP-194); assay: microbe, parasite or virus in culture; settings: strain no. 13, T-2076 (DP-194), clinical isolate, FKS1 HS1-S645F, HS2-R1361R/H mutation
# Text: as §1
# [9] = tested on: C. albicans T-2077 (DP-205); assay: microbe, parasite or virus in culture; settings: strain no. 15, T-2077 (DP-205), clinical isolate, FKS1 HS1-S645P mutation
# Text: as §1
# [10] = tested on: C. glabrata CST78; assay: microbe, parasite or virus in culture
# Text: as §1
# [11] = tested on: C. glabrata DPL1086; assay: microbe, parasite or virus in culture; settings: strain no. 17, DPL1086, parental ATCC 90030, FKS1 mutant HS1-S629P
# Text: as §1
# [12] = tested on: C. glabrata T-985 (11-076); assay: microbe, parasite or virus in culture
# Text: as §1
# [13] = tested on: C. glabrata TGL00054; assay: microbe, parasite or virus in culture; settings: strain no. 19, TGL00054, parental CST109, FKS2 mutant
# Text: as §1
# [14] = tested on: C. glabrata TGL00056; assay: microbe, parasite or virus in culture; settings: strain no. 22, TGL00056, parental CST34, FKS mutant
# Text: as §1
# [15] = tested on: C. glabrata TGL00065; assay: microbe, parasite or virus in culture; settings: strain no. 27, TGL00065, FKS mutant
# Text: as §1
# [16] = tested on: C. glabrata TGL00091; assay: microbe, parasite or virus in culture; settings: strain no. 35, TGL00091, FKS mutant
# Text: as §1
# [17] = tested on: C. glabrata TGL00107; assay: microbe, parasite or virus in culture; settings: strain no. 23, TGL00107, parental CST34, FKS mutant
# Text: as §1
# [18] = tested on: C. glabrata TGL00253; assay: microbe, parasite or virus in culture; settings: strain no. 20, TGL00253, parental CST109, FKS2 mutant
# Text: as §1
# [19] = tested on: C. glabrata TGL00256; assay: microbe, parasite or virus in culture; settings: strain no. 24, TGL00256, parental CST34, FKS mutant
# Text: as §1
# [20] = tested on: C. glabrata TGL00258; assay: microbe, parasite or virus in culture; settings: strain no. 25, TGL00258, parental CST34, FKS mutant
# Text: as §1
# [21] = tested on: C. glabrata TGL00263; assay: microbe, parasite or virus in culture; settings: strain no. 28, TGL00263, parental CST78, FKS mutant
# Text: as §1
# [22] = tested on: C. glabrata TGL00264; assay: microbe, parasite or virus in culture; settings: strain no. 29, TGL00264, parental CST78, FKS mutant
# Text: as §1
# [23] = tested on: C. glabrata TGL00265; assay: microbe, parasite or virus in culture; settings: strain no. 30, TGL00265, parental CST78, FKS mutant
# Text: as §1
# [24] = tested on: C. glabrata TGL00275; assay: microbe, parasite or virus in culture; settings: strain no. 32, TGL00275, FKS mutant
# Text: as §1
# [25] = tested on: C. glabrata TGL00277; assay: microbe, parasite or virus in culture; settings: strain no. 33, TGL00277, parental EF1620, FKS mutant
# Text: as §1
# [26] = tested on: C. glabrata TGL00291; assay: microbe, parasite or virus in culture; settings: strain no. 36, TGL00291, parental BG2, FKS mutant
# Text: as §1
# [27] = tested on: C. glabrata TGL00293; assay: microbe, parasite or virus in culture; settings: strain no. 37, TGL00293, parental BG2, FKS mutant
# Text: as §1
# [28] = tested on: C. glabrata TGL00294; assay: microbe, parasite or virus in culture; settings: strain no. 38, TGL00294, parental BG2, FKS mutant
# Text: as §1
# [29] = tested on: C. albicans ATCC 10231; assay: MIC, broth double dilution; settings: strain no. 11, C. albicans ATCC 10231
# Text: as §1
# [30] = tested on: C. albicans SC5314; assay: MIC, broth double dilution; settings: strain no. 1, C. albicans SC5314, WT
# Text: as §1
# [31] = tested on: C. glabrata CST34; assay: MIC, broth double dilution; settings: strain no. 21, C. glabrata CST34 (parental)
# Text: as §1
# [32] = tested on: C. glabrata T-190 (11-304); assay: MIC, broth double dilution; settings: strain no. 42, T-190 (11-304), clinical isolate
# Text: as §1
# [33] = tested on: C. glabrata T-191 (11-331); assay: MIC, broth double dilution; settings: strain no. 43, T-191 (11-331), clinical isolate
# Text: as §1
# [34] = tested on: C. glabrata T-982 (11-181); assay: MIC, broth double dilution; settings: strain no. 46, T-982 (11-181), clinical isolate
# Text: as §1
# [35] = tested on: C. glabrata T-983 (11-079); assay: MIC, broth double dilution; settings: strain no. 47, T-983 (11-079), clinical isolate
# Text: as §1
# [36] = strain no. 7, CG72, parental CAM, pKE1:GFP-YPT72
# [37] = strain no. 8, SN95, parental RM1000
# [38] = strain no. 26, C. glabrata CST78
# [39] = strain no. 49, T-985 (11-076), clinical isolate
SMILES,MIC [2],MIC [3],MIC [5],MIC [6],MIC [7],MIC [8],MIC [9],MIC [11],MIC [13],MIC [14],MIC [15],MIC [16],MIC [17],MIC [18],MIC [19],MIC [20],MIC [21],MIC [22],MIC [23],MIC [24],also measured
CN(C)c1ccc2c(-c3ccc(C(=O)NCCCN=[N+]=[N-])cc3C(=O)[O-])c3ccc(=[N+](C)C)cc-3oc2c1 [Compound 5-TMR-azide],>64 µg/mL,>64 µg/mL,>64 µg/mL,>64 µg/mL,>64 µg/mL,>64 µg/mL,>64 µg/mL,>64 µg/mL,>64 µg/mL,>64 µg/mL,>64 µg/mL,>64 µg/mL,>64 µg/mL,>64 µg/mL,>64 µg/mL,>64 µg/mL,>64 µg/mL,>64 µg/mL,>64 µg/mL,>64 µg/mL,MIC [1]: >64 µg/mL; MIC [4]: >64 µg/mL; MIC [10]: >64 µg/mL; MIC [12]: >64 µg/mL; MIC [25]: >64 µg/mL; MIC [26]: >64 µg/mL; MIC [27]: >64 µg/mL; MIC [28]: >64 µg/mL; MIC [29]: >64 µg/mL; MIC [30]: >64 µg/mL; MIC [31]: >64 µg/mL; MIC [32]: >64 µg/mL; MIC [33]: >64 µg/mL; MIC [34]: >64 µg/mL; MIC [35]: >64 µg/mL
C#CCOc1ccc([C@H](O)[C@@H](O)[C@@H]2NC(=O)[C@@H]3C[C@@H](O)CN3C(=O)[C@H]([C@@H](C)O)NC(=O)[C@@H](NC(=O)CCCCCCCC[C@@H](C)C[C@@H](C)CC)C[C@@H](O)[C@@H](NCCN)NC(=O)[C@@H]3[C@@H](O)CCN3C(=O)[C@H]([C@H](O)CCN)NC2=O)cc1 [Compound 1a],8 µg/mL,16 µg/mL,16 µg/mL,32 µg/mL,16 µg/mL,32 µg/mL,>64 µg/mL,4 µg/mL,>64 µg/mL,>64 µg/mL,>64 µg/mL,>64 µg/mL,>64 µg/mL,>64 µg/mL,2 µg/mL,>64 µg/mL,>64 µg/mL,>64 µg/mL,>64 µg/mL,16 µg/mL,"MIC [1, 36]: 0.063 µg/mL; MIC [4, 37]: 0.125 µg/mL; MIC [10, 38]: 0.5 µg/mL; MIC [12, 39]: 0.5 µg/mL; MIC [25]: >64 µg/mL; MIC [26]: >64 µg/mL; MIC [27]: >64 µg/mL; MIC [28]: >64 µg/mL; MIC [29]: 0.125 µg/mL; MIC [30]: 0.125 µg/mL; MIC [31]: 0.25 µg/mL; MIC [32]: 0.5 µg/mL; MIC [33]: 0.25 µg/mL; MIC [34]: 0.25 µg/mL; MIC [35]: 0.25 µg/mL"
CC[C@H](C)C[C@H](C)CCCCCCCCC(=O)N[C@H]1C[C@@H](O)[C@@H](NCCNC(=O)CCc2ccc3n2[B-](F)(F)[N+]2=C(C)C=C(C)C2=C3)NC(=O)[C@@H]2[C@@H](O)CCN2C(=O)[C@H]([C@H](O)CCN)NC(=O)[C@H]([C@H](O)[C@@H](O)c2ccc(O)cc2)NC(=O)[C@@H]2C[C@@H](O)CN2C(=O)[C@H]([C@@H](C)O)NC1=O [CSF-BOD],16 µg/mL,>64 µg/mL,>64 µg/mL,>64 µg/mL,16 µg/mL,32 µg/mL,>64 µg/mL,16 µg/mL,>64 µg/mL,>64 µg/mL,>64 µg/mL,>64 µg/mL,>64 µg/mL,>64 µg/mL,8 µg/mL,>64 µg/mL,>64 µg/mL,>64 µg/mL,>64 µg/mL,>64 µg/mL,"MIC [1, 36]: 1 µg/mL; MIC [4, 37]: 2 µg/mL; MIC [10, 38]: 2 µg/mL; MIC [12, 39]: 2 µg/mL; MIC [25]: >64 µg/mL; MIC [26]: >64 µg/mL; MIC [27]: >64 µg/mL; MIC [28]: >64 µg/mL; MIC [29]: 2 µg/mL; MIC [30]: 1 µg/mL; MIC [31]: 1 µg/mL; MIC [32]: 1 µg/mL; MIC [33]: 1 µg/mL; MIC [34]: 1 µg/mL; MIC [35]: 2 µg/mL"
